Results reported in article PMC9246205, “Olmesartan medoxomil self-microemulsifying drug delivery system reverses apoptosis and improves cell adhesion in trinitrobenzene sulfonic acid-induced colitis in rats” (Drug Delivery, 2022).

Experiments:
Format in all cases: in vivo, rat
[1] = tested on: trinitrobenzene sulfonic acid-induced acute colitis; assay: Disease activity score in TNBS-induced acute colitis; details: TNBS-colitic rats, 7 days, mean ± SEM, n = 8
Experimental: (§1) The rats were food-deprived for a day, and colitis was induced as previously described (Wang et al., [2010]). Rats were anesthetized with ether and then a 5% TNBS (Sigma, St Louis, USA) (100 mg/kg) dissolved in 0.25 mL of 50% ethanol (v/v) (2:1) was administered by a polyethylene catheter introduced rectally to 6–8 cm from the anus. Rats were set in a head-down position for 30 seconds to avoid leakage of the solution (Lu et al., [2017]). Rats were randomly divided into seven groups (n = 8) including the normal control (NC) group, TNBS-colitic (positive control, PC) group, and five TNBS-colitic-treated groups which were orally given sulfasalazine (SSZ, 100 mg/kg/day, a reference treatment for IBD) (Yousefi-Ahmadipour et al., [2020]), low and high doses of OM (OML and OMH: 3.0 and 10.0 mg/kg/day (Nagib et al., [2013])) as a raw drug and as an OMS (OMSL and OMSH). OM was suspended in distilled water containing 0.25% carboxymethyl cellulose (Gorain et al., [2014]; Komesli et al., [2019]). The treatments were given for 7 days starting 4 hours after TNBS administration (Lu et al., [2017]). Rats were evaluated for the colitis activity score. At end of the treatment period, blood was collected, and rats were sacrificed. The colon was excised, cleaned with ice-cold saline, measured for weight and length, and the macroscopic appearance was evaluated. Parts of the colon were homogenized and activities/levels of myeloperoxidase (MPO), tumor necrosis factor-α (TNF-α), interleukin-6 (IL-6), malondialdehyde (MDA), and reduced glutathione (GSH) were measured. The concentrations of olmesartan in plasma and colonic homogenate were measured by high performance liquid chromatography/mass spectrometry (HPLC/MS). Samples of the colon were obtained for hematoxylin and eosin (H&E) and immunohistochemical staining (Joo et al., [2015])). […]
The colitis activity index was measured to evaluate the activity of intestinal inflammation. The scores for weight loss, stool consistency, and fecal blood were calculated to give a disease activity score (DAS) as previously described (Wang et al., [2014]). […]

[2] = tested on: trinitrobenzene sulfonic acid-induced acute colitis; assay: Colonic macroscopic examination and colon weight/length ratio in TNBS-induced acute colitis; details: TNBS-colitic rats, 7 days; for Colon weight/length ratio: mean ± SEM, n = 8
Experimental: (§2) The rats were food-deprived for a day, and colitis was induced as previously described (Wang et al., [2010]). Rats were anesthetized with ether and then a 5% TNBS (Sigma, St Louis, USA) (100 mg/kg) dissolved in 0.25 mL of 50% ethanol (v/v) (2:1) was administered by a polyethylene catheter introduced rectally to 6–8 cm from the anus. Rats were set in a head-down position for 30 seconds to avoid leakage of the solution (Lu et al., [2017]). Rats were randomly divided into seven groups (n = 8) including the normal control (NC) group, TNBS-colitic (positive control, PC) group, and five TNBS-colitic-treated groups which were orally given sulfasalazine (SSZ, 100 mg/kg/day, a reference treatment for IBD) (Yousefi-Ahmadipour et al., [2020]), low and high doses of OM (OML and OMH: 3.0 and 10.0 mg/kg/day (Nagib et al., [2013])) as a raw drug and as an OMS (OMSL and OMSH). OM was suspended in distilled water containing 0.25% carboxymethyl cellulose (Gorain et al., [2014]; Komesli et al., [2019]). The treatments were given for 7 days starting 4 hours after TNBS administration (Lu et al., [2017]). Rats were evaluated for the colitis activity score. At end of the treatment period, blood was collected, and rats were sacrificed. The colon was excised, cleaned with ice-cold saline, measured for weight and length, and the macroscopic appearance was evaluated. Parts of the colon were homogenized and activities/levels of myeloperoxidase (MPO), tumor necrosis factor-α (TNF-α), interleukin-6 (IL-6), malondialdehyde (MDA), and reduced glutathione (GSH) were measured. The concentrations of olmesartan in plasma and colonic homogenate were measured by high performance liquid chromatography/mass spectrometry (HPLC/MS). Samples of the colon were obtained for hematoxylin and eosin (H&E) and immunohistochemical staining (Joo et al., [2015])). All evaluations were made by blinded observers.
The colon was measured for weight and length. The degree of colonic damage regarding edema, ulceration, bleeding, and necrosis was expressed as mild, moderate, or severe (Ghia et al., [2006]).

[3] = tested on: myeloperoxidase (MPO); assay: Colonic MPO activity (ELISA, colon homogenate); details: TNBS-colitic rats, 7 days, mean ± SEM, n = 8
Experimental: as §1, with “At end of the treatment period, blood was collected, and rats were sacrificed.” left out, “(HPLC/MS).” for “(HPLC/MS). Samples of the colon were obtained for hematoxylin and eosin (H&E) and immunohistochemical staining (Joo et al., [2015])).”
(§3) The colonic samples were homogenized using phosphate-buffered saline and a TissueLyser II (Qiagen) at 4 °C to yield a 10% homogenate. […] The colonic protein content was determined by using the Bradford method (Bradford, 1976). The activities and/or levels of MPO (a marker for neutrophil infiltration), TNF-α, IL-6, MDA, and GSH were measured using ELISA kits (MyBioSource, Inc. CA, USA) according to the manufacturer's guidelines and were expressed/mg protein.

[4] = tested on: tumor necrosis factor-α (TNF-α); assay: Colonic TNF-α (ELISA, colon homogenate); details: TNBS-colitic rats, 7 days, mean ± SEM, n = 8
Experimental: as §1, with “At end of the treatment period, blood was collected, and rats were sacrificed.” left out, “(HPLC/MS).” for “(HPLC/MS). Samples of the colon were obtained for hematoxylin and eosin (H&E) and immunohistochemical staining (Joo et al., [2015])).”
as §3

[5] = tested on: interleukin-6 (IL-6); assay: Colonic IL-6 (ELISA, colon homogenate); details: TNBS-colitic rats, 7 days, mean ± SEM, n = 8
Experimental: as §1, with “At end of the treatment period, blood was collected, and rats were sacrificed.” left out, “(HPLC/MS).” for “(HPLC/MS). Samples of the colon were obtained for hematoxylin and eosin (H&E) and immunohistochemical staining (Joo et al., [2015])).”
as §3

[6] = tested on: malondialdehyde (MDA); assay: Colonic MDA (ELISA, colon homogenate); details: TNBS-colitic rats, 7 days, mean ± SEM, n = 8
Experimental: The rats were food-deprived for a day, and colitis was induced as previously described (Wang et al., [2010]). Rats were anesthetized with ether and then a 5% TNBS (Sigma, St Louis, USA) (100 mg/kg) dissolved in 0.25 mL of 50% ethanol (v/v) (2:1) was administered by a polyethylene catheter introduced rectally to 6–8 cm from the anus. Rats were set in a head-down position for 30 seconds to avoid leakage of the solution (Lu et al., [2017]). […] Rats were evaluated for the colitis activity score. […] The colon was excised, cleaned with ice-cold saline, measured for weight and length, and the macroscopic appearance was evaluated. Parts of the colon were homogenized and activities/levels of myeloperoxidase (MPO), tumor necrosis factor-α (TNF-α), interleukin-6 (IL-6), malondialdehyde (MDA), and reduced glutathione (GSH) were measured. The concentrations of olmesartan in plasma and colonic homogenate were measured by high performance liquid chromatography/mass spectrometry (HPLC/MS). […]
The colonic samples were homogenized using phosphate-buffered saline and a TissueLyser II (Qiagen) at 4 °C to yield a 10% homogenate. […] The colonic protein content was determined by using the Bradford method (Bradford, 1976). […]

[7] = tested on: reduced glutathione (GSH); assay: Colonic GSH (ELISA, colon homogenate); details: TNBS-colitic rats, 7 days, mean ± SEM, n = 8
Experimental: as §1, with “At end of the treatment period, blood was collected, and rats were sacrificed.” left out, “(HPLC/MS).” for “(HPLC/MS). Samples of the colon were obtained for hematoxylin and eosin (H&E) and immunohistochemical staining (Joo et al., [2015])).”
as §3

[8] = tested on: trinitrobenzene sulfonic acid-induced acute colitis; assay: Colonic histopathological examination (H&E); details: TNBS-colitic rats, 7 days
Experimental: as §1
The colonic parts were fixed in 10% buffered formalin and embedded in paraffin. Sections (3–5 µm) were prepared and stained with H&E. The degree of inflammation was expressed as mild, moderate, or severe (Wirtz et al., [2007]).

[9] = tested on: E-cadherin; assay: Colonic E-cadherin immunostaining; details: TNBS-colitic rats, 7 days
Experimental: as §1, with “(HPLC/MS).” for “(HPLC/MS). Samples of the colon were obtained for hematoxylin and eosin (H&E) and immunohistochemical staining (Joo et al., [2015])).”
(§4) Colonic sections were immunohistochemically stained for E-cadherin and Caspase-3 (ab13847; Abcam; 1:500 dilution). […] For MMP-9 immunostaining, the sections were probed with rabbit and mouse monoclonal anti-MMP-9 (1:150 dilution), detected with sheep anti-rabbit or anti-mouse IgG fluorescein isothiocyanate (1:500 dilution), and examined under a fluorescent microscope (Baugh et al., [1999]).

[10] = tested on: caspase-3; assay: Colonic caspase-3 immunostaining; details: TNBS-colitic rats, 7 days
Experimental: as §1, with “(HPLC/MS).” for “(HPLC/MS). Samples of the colon were obtained for hematoxylin and eosin (H&E) and immunohistochemical staining (Joo et al., [2015])).”
as §4

[11] = tested on: matrix metalloproteinase-9 (MMP-9); assay: Colonic MMP-9 immunostaining; details: TNBS-colitic rats, 7 days
Experimental: as §1, with “(HPLC/MS).” for “(HPLC/MS). Samples of the colon were obtained for hematoxylin and eosin (H&E) and immunohistochemical staining (Joo et al., [2015])).”
as §4

[12] = tested on: E-cadherin, Bax, Bcl-2, cleaved caspase-3; assay: Western blot of colonic E-cadherin, Bax, Bcl-2 and cleaved caspase-3; details: TNBS-colitic rats, 7 days
Experimental: as §2, with “observers. […]” for “observers.”

[13] = high dose 10.0 mg/kg/day orally

CCCc1nc(C(C)(C)O)c(C(=O)OCc2oc(=O)oc2C)n1Cc1ccc(-c2ccccc2-c2nnn[nH]2)cc1 [OM, Olmesartan medoxomil]
Disease activity score [1, 13]: 3.01 ± 0.25 # | Disease activity score ([1]; low dose 3.0 mg/kg/day orally): 5.69 ± 0.26 ^ | colonic macroscopic appearance (damage) [2, 13]: moderate improvement | Colon weight/length ratio [2, 13]: 121.50 ± 6.91 # mg/cm | colonic macroscopic appearance (damage) ([2]; low dose 3.0 mg/kg/day orally): mild improvement | Colon weight/length ratio ([2]; low dose 3.0 mg/kg/day orally): 176.63 ± 3.49 ^ mg/cm | MPO activity [3, 13]: 14.52 ± 0.61 # U/mg protein | MPO activity ([3]; low dose 3.0 mg/kg/day orally): 20.90 ± 1.06 ^ U/mg protein | TNF-α [4, 13]: 51.45 ± 2.47 # pg/mg protein | TNF-α ([4]; low dose 3.0 mg/kg/day orally): 69.98 ± 3.50 ^ pg/mg protein | IL-6 [5, 13]: 122.43 ± 4.29 # pg/mg protein | IL-6 ([5]; low dose 3.0 mg/kg/day orally): 160.57 ± 5.73 ^ pg/mg protein | MDA [6, 13]: 149.57 ± 2.26 # nmol/mg protein | MDA ([6]; low dose 3.0 mg/kg/day orally): 221.25 ± 6.23 ^ nmol/mg protein | GSH [7, 13]: 29.03 ± 1.44 # nmol/mg protein | GSH ([7]; low dose 3.0 mg/kg/day orally): 19.77 ± 0.55 ^ nmol/mg protein | colonic histopathological damage (H&E) [8, 13]: moderate improvement | colonic histopathological damage (H&E) ([8]; low dose 3.0 mg/kg/day orally): mild improvement | colonic E-cadherin expression (immunostaining) [9, 13]: moderate improvement | colonic E-cadherin expression (immunostaining) ([9]; low dose 3.0 mg/kg/day orally): mild improvement | colonic caspase-3 expression (immunostaining) [10, 13]: moderate improvement | colonic caspase-3 expression (immunostaining) ([10]; low dose 3.0 mg/kg/day orally): mild improvement | colonic MMP-9 overexpression (immunostaining) [11, 13]: moderate improvement | colonic MMP-9 overexpression (immunostaining) ([11]; low dose 3.0 mg/kg/day orally): mild improvement | protein expression of colonic E-cadherin, Bax, Bcl-2, cleaved caspase-3 and Bcl-2/Bax ratio (Western blot) [12, 13]: moderate improvements | protein expression of colonic E-cadherin, Bax, Bcl-2, cleaved caspase-3 and Bcl-2/Bax ratio (Western blot) ([12]; low dose 3.0 mg/kg/day orally): mild improvement

O=C(O)c1cc(/N=N/c2ccc(S(=O)(=O)Nc3ccccn3)cc2)ccc1O [SSZ, sulfasalazine]
Disease activity score ([1]; 100 mg/kg/day orally): 0.45 ± 0.06 $ | colonic macroscopic appearance (damage) ([2]; 100 mg/kg/day orally): greatly improved | Colon weight/length ratio ([2]; 100 mg/kg/day orally): 78.23 ± 2.11 $ mg/cm | MPO activity ([3]; 100 mg/kg/day orally): 8.01 ± 0.30 $, @ U/mg protein | TNF-α ([4]; 100 mg/kg/day orally): 20.49 ± 0.73 $ pg/mg protein | IL-6 ([5]; 100 mg/kg/day orally): 65.06 ± 1.46 $ pg/mg protein | GSH ([7]; 100 mg/kg/day orally): 39.75 ± 1.38 $ nmol/mg protein | colonic histopathological damage (H&E) ([8]; 100 mg/kg/day orally): nearly normalized the colonic damage | colonic E-cadherin expression (immunostaining) ([9]; 100 mg/kg/day orally): greatly upregulated and nearly normalized | colonic caspase-3 expression (immunostaining) ([10]; 100 mg/kg/day orally): greatly decreased and nearly normalized | colonic MMP-9 overexpression (immunostaining) ([11]; 100 mg/kg/day orally): marked improvement | protein expression of colonic E-cadherin, Bax, Bcl-2, cleaved caspase-3 and Bcl-2/Bax ratio (Western blot) ([12]; 100 mg/kg/day orally): marked improvement
